From the supplement of paper PMC10307832

Legend:
Experiment in all cases: relative viability (nuclei count vs DMSO), 5 days (fraction); higher = more cells survive
Dovitinib + Vorinostat = compound: CN1CCN(c2ccc3nc(-c4c(N)c5c(F)cccc5[nH]c4=O)[nH]c3c2)CC1 [Dovitinib] + O=C(CCCCCCC(=O)Nc1ccccc1)NO [Vorinostat] (partner 1 µM)
Outline: (§1)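 Lung cancer cell lines were seeded in 1536-well plates and dosed by pin tool the next day, with either a single drug or a fixed anchor-drug dose combined with five library-drug doses (not always all listed) spaced in √10 steps. Five days later, one step fixed the cells and stained their nuclei (final 0.05% Triton X-100, 1% formaldehyde, 1 ug/ml Hoechst), and nuclei were counted on 4× images. Relative viability is the nuclei count in treated wells divided by the count in vehicle wells, and each value is the median of duplicate plates.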

Dovitinib + Alpelisib = compound: CN1CCN(c2ccc3nc(-c4c(N)c5c(F)cccc5[nH]c4=O)[nH]c3c2)CC1 [Dovitinib] + Cc1nc(NC(=O)N2CCC[C@H]2C(N)=O)sc1-c1ccnc(C(C)(C)C(F)(F)F)c1 [Alpelisib] (partner 2 µM)
Outline: as §1

Dovitinib + Navitoclax = compound: CN1CCN(c2ccc3nc(-c4c(N)c5c(F)cccc5[nH]c4=O)[nH]c3c2)CC1 [Dovitinib] + CC1(C)CCC(c2ccc(Cl)cc2)=C(CN2CCN(c3ccc(C(=O)NS(=O)(=O)c4ccc(N[C@H](CCN5CCOCC5)CSc5ccccc5)c(S(=O)(=O)C(F)(F)F)c4)cc3)CC2)C1 [Navitoclax] (partner 0.5 µM)
Outline: as §1

Dovitinib + Linsitinib = compound: CN1CCN(c2ccc3nc(-c4c(N)c5c(F)cccc5[nH]c4=O)[nH]c3c2)CC1 [Dovitinib] + C[C@]1(O)C[C@@H](c2nc(-c3ccc4ccc(-c5ccccc5)nc4c3)c3c(N)nccn32)C1 [Linsitinib] (partner 1 µM)
Outline: as §1

| Cell Line | relative viability (Dovitinib + Vorinostat; first compound 0.02 µM) | relative viability (Dovitinib + Vorinostat; first compound 0.06325 µM) | relative viability (Dovitinib + Vorinostat; first compound 0.2 µM) | relative viability (Dovitinib + Vorinostat; first compound 0.6325 µM) | relative viability (Dovitinib + Vorinostat; first compound 2 µM) | relative viability (Dovitinib + Alpelisib; first compound 0.02 µM) | relative viability (Dovitinib + Alpelisib; first compound 0.06325 µM) | relative viability (Dovitinib + Alpelisib; first compound 0.2 µM) | relative viability (Dovitinib + Alpelisib; first compound 0.6325 µM) | relative viability (Dovitinib + Alpelisib; first compound 2 µM) | relative viability (Dovitinib + Navitoclax; first compound 0.02 µM) | relative viability (Dovitinib + Navitoclax; first compound 0.06325 µM) | relative viability (Dovitinib + Navitoclax; first compound 0.2 µM) | relative viability (Dovitinib + Navitoclax; first compound 0.6325 µM) | relative viability (Dovitinib + Navitoclax; first compound 2 µM) | relative viability (Dovitinib + Linsitinib; first compound 0.02 µM) | relative viability (Dovitinib + Linsitinib; first compound 0.06325 µM) | relative viability (Dovitinib + Linsitinib; first compound 0.2 µM) | relative viability (Dovitinib + Linsitinib; first compound 0.6325 µM) | relative viability (Dovitinib + Linsitinib; first compound 2 µM) |
| --- | --- | --- | --- | --- | --- | --- | --- | --- | --- | --- | --- | --- | --- | --- | --- | --- | --- | --- | --- | --- |
| LU99A | 0.456 | 0.555 | 0.46 | 0.615 | 0.624 | 0.492 | 0.561 | 0.43 | 0.461 | 0.559 | 0.78 | 0.787 | 0.747 | 0.774 | 0.727 | 0.482 | 0.571 | 0.521 | 0.515 | 0.506 |
| NCI-H647 | 0.52 | 0.658 | 0.659 | 0.434 | 0.851 | 0.966 | 1.15 | 1.34 | 1.19 | 0.961 | 0.958 | 1.04 | 1.14 | 1.04 | 0.949 | 1.1 | 1.15 | 1.16 | 1.06 | 1.27 |
| A-427 | 0.83 | 0.845 | 0.895 | 0.941 | 0.991 | 0.979 | 1.03 | 1.07 | 0.938 | 1.03 | 0.91 | 0.933 | 0.942 | 0.902 | 0.822 | 1.05 | 1.07 | 1.14 | 1.09 | 1.08 |
| COR-L 105 | 0.867 | 0.801 | 0.833 | 0.69 | 0.794 | 0.938 | 0.986 | 1.01 | 0.84 | 0.958 | 0.701 | 0.62 | 0.754 | 0.646 | 0.806 | 1.04 | 0.912 | 0.834 | 0.855 | 0.961 |
| NCI-H441 | 0.76 | 0.795 | 0.849 | 0.628 | 0.772 | 0.787 | 0.902 | 0.909 | 0.548 | 0.566 | 0.665 | 0.54 | 0.911 | 0.572 | 0.775 | 0.512 | 0.537 | 0.541 | 0.599 | 0.499 |
| NCI-H2126 | 0.811 | 0.819 | 0.798 | 0.876 | 0.838 | 0.761 | 0.72 | 0.716 | 0.769 | 0.695 | 0.857 | 0.886 | 0.874 | 0.81 | 0.873 | 0.697 | 0.691 | 0.748 | 0.747 | 0.696 |
| HCC-44 | 1.08 | 1.1 | 1.08 | 1.09 | 1.08 | 0.721 | 0.783 | 0.835 | 0.856 | 0.747 | 0.954 | 0.925 | 0.923 | 0.974 | 0.876 | 0.681 | 0.667 | 0.681 | 0.773 | 0.628 |
| NCI-H460 | 0.682 | 0.77 | 0.729 | 0.711 | 0.711 | 0.421 | 0.562 | 0.524 | 0.395 | 0.426 | 0.961 | 1.14 | 1.02 | 1.08 | 1.14 | 0.758 | 0.904 | 0.834 | 0.74 | 0.777 |
| SK-LU-1 | 0.753 | 0.913 | 0.759 | 0.715 | 0.805 | 0.928 | 0.946 | 0.951 | 0.805 | 1.16 | 0.787 | 1.09 | 0.835 | 0.748 | 0.925 | 1.1 | 0.999 | 0.966 | 1.07 | 1.06 |
| NCI-H322M | 0.768 | 0.831 | 0.807 | 0.926 | 0.84 | 0.84 | 0.774 | 0.792 | 0.809 | 0.776 | 1.17 | 1.25 | 1.21 | 1.27 | 1.23 | 0.945 | 0.853 | 0.973 | 0.943 | 0.892 |
| EKVX | 0.799 | 0.776 | 0.836 | 0.75 | 0.739 | 0.889 | 0.848 | 0.901 | 0.942 | 0.946 | 0.923 | 0.989 | 1.1 | 0.989 | 0.883 | 1.01 | 1.05 | 1 | 1.02 | 0.978 |
| NCI-H1734 | 0.832 | 0.773 | 0.784 | 0.785 | 0.875 | 0.711 | 0.697 | 0.675 | 0.626 | 0.641 | 0.876 | 0.826 | 0.849 | 0.851 | 0.822 | 0.961 | 0.862 | 0.843 | 0.902 | 0.833 |
| NCI-H520 | 0.765 | 0.698 | 0.62 | 0.656 | 0.643 | 0.794 | 0.988 | 0.935 | 0.86 | 0.769 | 1.17 | 1.21 | 1.09 | 1.03 | 0.905 | 0.832 | 0.964 | 0.986 | 0.868 | 1.07 |
| EPLC-272H | 0.564 | 0.522 | 0.434 | 0.402 | 0.367 | 0.9 | 0.815 | 0.97 | 0.946 | 0.888 | 1.05 | 0.993 | 1.24 | 1.49 | 0.97 | 1.17 | 1.16 | 1.2 | 1.11 | 1.16 |
| UMC-11 | 0.449 | 0.422 | 0.478 | 0.383 | 0.431 | 0.958 | 0.941 | 0.892 | 0.82 | 0.961 | 0.364 | 0.308 | 0.373 | 0.297 | 0.318 | 0.983 | 1.1 | 0.986 | 1.07 | 1.07 |
| NCI-H1993 | 0.929 | 0.754 | 0.823 | 0.76 | 0.943 | 0.599 | 0.683 | 0.642 | 0.71 | 0.734 | 1.07 | 0.963 | 0.965 | 1.02 | 0.934 | 0.774 | 0.678 | 0.657 | 0.695 | 0.808 |
